Experimental data reported in US10294202B2, “Pyrrolidinones as herbicides” (FMC Corporation, priority 2013, dated 2019).

Tests used:
waterhemp = assay: Test E preemergence herbicide test; type: in vivo, Amaranthus rudis; parameters: key: 0 = no effect, 100 = complete control
Text: (§1) Seeds of plant species selected from corn (Zea mays), soybean (Glycine max), velvetleaf (Abutilon theophrasti), lambsquarters (Chenopodium album), wild poinsettia (Euphorbia heterophylla), pigweed, palmer (palmer pigweed, Amaranthus palmeri), waterhemp (common waterhemp, Amaranthus rudis), surinam grass (Brachiaria decumbens), crabgrass, large (large crabgrass, Digitaria sanguinalis), crabgrass, Brazil (Brazilian crabgrass, Digitaria horizontalis), panicum, fall (fall panicum, Panicum dichotomiflorum), foxtail, giant (giant foxtail, Setaria faberii), foxtail, green (green foxtail, Setaria viridis), goosegrass (Eleusine indica), johnsongrass (Sorghum halepense), ragweed (common ragweed, Ambrosia elatior), barnyardgrass (Echinochloa crus-galli), sandbur (southern sandbur, Cenchrus echinatus), arrowleaf […] rhombifolia), ryegrass, Italian (Italian ryegrass, Lolium multiflorum), dayflower, VA (Virginia dayflower, Commelina virginica), field bindweed (Convolvulus arvensis), morningglory (Ipomoea coccinea), nightshade (eastern black nightshade, Solanum ptycanthum), kochia (Kochia scoparia), nutsedge, yellow (yellow nutsedge, Cyperus esculentus), cocklebur (common cocklebur, Xanthium strumarium), smartweed (ladysthumb smartweed, Polygonum Persicaria) and beggarticks (hairy beggarticks, Bidens pilosa), were planted into a silt loam soil and treated preemergence with test chemicals formulated in a non-phytotoxic solvent mixture which included a surfactant. Treated plants and controls were maintained in a greenhouse for 21 days, after which time all species were compared to controls and visually evaluated. Plant response ratings, summarized in Table E, are based on a scale of 0 to 100 where 0 is no effect and 100 is complete control. A dash (-) response means no test result.

arrowleaf sida = assay: Test E preemergence herbicide test; type: in vivo, Sida rhombifolia; parameters: key: 0 = no effect, 100 = complete control
Text: as §1

beggarticks = assay: Test E preemergence herbicide test; type: in vivo, Bidens pilosa; parameters: key: 0 = no effect, 100 = complete control
Text: as §1

wheat, spring = assay: Test D pre-/postemergence herbicide test; type: in vivo, Triticum aestivum; conditions: for Plant response rating: Postemergence, Wheat, Spring, scale 0 to 100; for Plant response rating, Wheat, Spring: Preemergence, scale 0 to 100 (0 no effect, 100 complete control)
Text: (§2) Seeds of plant species selected from bluegrass (annual bluegrass, Poa annua), blackgrass (Alopecurus myosuroides), canarygrass (littleseed canarygrass, Phalaris minor), chickweed (common chickweed, Stellaria media), galium (catchweed bedstraw, Galium aparine), bromegrass, downy (downy bromegrass, Bromus tectorum), field poppy (Papaver rhoeas), field violet (Viola arvensis), foxtail, green (green foxtail, Setaria viridis), deadnettle (henbit deadnettle, Lamium amplexicaule), ryegrass, Italian (Italian ryegrass, Lolium multiflorum), kochia (Kochia scoparia), lambsquarters (Chenopodium album), oilseed rape (Brassica napus), pigweed (Amaranthus retroflexus), chamomile (scentless chamomile, Matricaria inodora), Russian thistle (Salsola kali), speedwell (bird's-eye speedwell, Veronica persica), barley, spring (spring barley, Hordeum vulgare), wheat, spring (spring wheat, Triticum aestivum), buckwheat, wild (wild buckwheat, Polygonum convolvulus), mustard, wild (wild mustard, Sinapis arvensis), oat, wild (wild oat, Avena fatua), radish, wild (wild radish, Raphanus raphanistrum), […]), barley, winter (winter barley, Hordeum vulgare), and wheat, winter (winter wheat, Triticum aestivum) were planted into a silt loam soil and treated preemergence with test chemicals formulated in a non-phytotoxic solvent mixture which included a surfactant. At the same time, these species were planted in pots containing Redi-Earth® planting medium (Scotts Company, 14111 Scottslawn Road, Marysville, Ohio 43041) comprising spaghnum peat moss, vermiculite, wetting agent and starter nutrients and treated with postemergence applications of the test chemicals formulated in the same manner. Plants ranged in height from 2 to 18 cm (1- to 4-leaf stage). Treated plants and controls were maintained in a controlled growth environment for 7 to 21 days after which time all species were compared to controls and visually evaluated. Plant response ratings, summarized in Table D, are based on a scale of 0 to 100 where 0 is no effect and 100 is complete control. A dash (-) response means no test result.

wheat, winter = assay: Test D pre-/postemergence herbicide test; type: in vivo, Triticum aestivum; conditions: for Plant response rating: Postemergence, Wheat, Winter, scale 0 to 100; for Plant response rating, Wheat, Winter: Preemergence, scale 0 to 100 (0 no effect, 100 complete control)
Text: as §2

rice, transplanted = assay: Test F flood (paddy) test; type: in vivo, Oryza sativa cv. Japonica—M202; conditions: 21 d, scale 0-100
Text: Three plastic pots (ca. 16-cm diameter) per rate were partially filled with sterilized Tama silt loam soil comprising a 35:50:15 ratio of sand, silt and clay and 2.6% organic matter. Separate plantings for each of the three pots were as follows. Seeds from the U.S. of monochoria (Monochoria vaginalis), sedge, umbrella (small-flower umbrella sedge, Cyperus difformis), bulrush, […] bulrush, Scirpus juncoides), and […] (purple […] coccinea), were planted into one 16-cm pot for each rate. Seeds from the U.S. of flatsedge, rice (rice flatsedge, Cyperus iria), sprangletop, Brdd. (bearded sprangletop, Leptochloa fascicularis), one stand of 9 or 10 water seeded rice seedlings (Rice, W.S. Jap, Oryza sativa cv. 'Japonica-[…]' or Rice, W.S. Ind, 'Indica'), and two stands of 3 or 4 seedlings of rice, transplanted (transplanted rice, Oryza sativa cv. 'Japonica-[…]') were planted into one 16-cm pot for each rate. Seeds from the U.S. of barnyardgrass (Echinochloa crus-galli), […] (common […], Alisma plantago-aquatica), and watergrass, late (late watergrass, Echinochloa oryzicola) were planted into one 16-cm pot for each rate. Plantings were sequential so that crop and weed species were at the 2.0 to 2.5-leaf stage at time of treatment. Potted plants were grown in a greenhouse with day/night temperature settings of 30/27° C., and supplemental balanced lighting was provided to maintain a 16-h photoperiod. Test pots were maintained in the greenhouse until test completion. At time of treatment, test pots were flooded to 3 cm above the soil surface, treated by application of test compounds directly to the paddy water, and then maintained at that water depth for the duration of the test. Effects of treatments on rice and weeds were visually evaluated by comparison to untreated controls after 21 d. Plant response ratings, summarized in Table F, are based on a scale of 0 to 100 where 0 is no effect and 100 is complete control. A dash (-) response means no test result.

Row | SMILES | Plant response rating, Waterhemp (waterhemp; 31 g ai/ha) | Plant response rating, Waterhemp (waterhemp; 62 g ai/ha) | Plant response rating, Waterhemp (waterhemp; 125 g ai/ha) | Plant response rating, Waterhemp (waterhemp; 250 g ai/ha) | Plant response rating, Arrowleaf Sida (arrowleaf sida; 31 g ai/ha) | Plant response rating, Arrowleaf Sida (arrowleaf sida; 62 g ai/ha) | Plant response rating, Arrowleaf Sida (arrowleaf sida; 125 g ai/ha) | Plant response rating, Arrowleaf Sida (arrowleaf sida; 250 g ai/ha) | Plant response rating, Beggarticks (beggarticks; 125 g ai/ha) | Plant response rating, Beggarticks (beggarticks; 250 g ai/ha) | Plant response rating (wheat, spring; 16 g ai/ha) | Plant response rating (wheat, spring; 31 g ai/ha) | Plant response rating (wheat, spring; 62 g ai/ha) | Plant response rating (wheat, spring; 125 g ai/ha) | Plant response rating (wheat, spring; 250 g ai/ha) | Plant response rating (wheat, winter; 16 g ai/ha) | Plant response rating (wheat, winter; 31 g ai/ha) | Plant response rating (wheat, winter; 62 g ai/ha) | Plant response rating (wheat, winter; 125 g ai/ha) | Plant response rating (wheat, winter; 250 g ai/ha) | also measured
1 | O=C1NCC(c2ccc(C(F)(F)F)cc2)C1C(=O)Nc1ccc(F)c(F)c1F (centres unmarked) [Compound 232] | 35 | 80 | 85 | 95 | 0 | 20 | 65 | 90 | 20 | 60 | – | – | – | – | – | – | – | – | – | – | Plant response rating, Beggarticks (beggarticks; 31 g ai/ha): 0; Plant response rating, Beggarticks (beggarticks; 62 g ai/ha): 0
2 | O=C1NCC(c2ccc(F)c(F)c2)C1C(=O)Nc1cccc(F)c1 (racemic) [Compound 12] | – | – | – | – | – | – | – | – | – | – | 0 | 0 | 0 | 0 | 0 | 0 | 0 | 0 | 0 | 0 | Plant response rating, Wheat, Spring (wheat, spring; 31 g ai/ha): 0; Plant response rating, Wheat, Spring (wheat, spring; 62 g ai/ha): 0; Plant response rating, Wheat, Spring (wheat, spring; 125 g ai/ha): 0; Plant response rating, Wheat, Spring (wheat, spring; 250 g ai/ha): 0; Plant response rating, Wheat, Spring (wheat, spring; 16 g ai/ha): 0; Plant response rating, Wheat, Winter (wheat, winter; 31 g ai/ha): 0; Plant response rating, Wheat, Winter (wheat, winter; 62 g ai/ha): 0; Plant response rating, Wheat, Winter (wheat, winter; 125 g ai/ha): 0; Plant response rating, Wheat, Winter (wheat, winter; 250 g ai/ha): 0; Plant response rating, Wheat, Winter (wheat, winter; 16 g ai/ha): 0
3 | CN1CC(c2ccc(F)cc2)C(C(=O)Nc2cccc(F)c2F)C1=O (centres unmarked) [Compound 271] | – | – | – | – | – | – | – | – | – | – | – | – | – | – | – | – | – | – | – | – | Plant response rating, Rice, Transplanted (rice, transplanted; 64 g ai/ha): 0; Plant response rating, Rice, Transplanted (rice, transplanted; 125 g ai/ha): 0; Plant response rating, Rice, Transplanted (rice, transplanted; 250 g ai/ha): 0; Plant response rating, Rice, Transplanted (rice, transplanted; 500 g ai/ha): 15
4 | O=C1NCC(c2ccc(F)cc2)C1C(=O)Nc1ccccc1F (racemic) [Compound 16] | 0 | 0 | 0 | 0 | 0 | 0 | 0 | 0 | 0 | 0 | – | – | – | – | – | – | – | – | – | – | Plant response rating, Waterhemp (waterhemp; 16 g ai/ha): 0; Plant response rating, Arrowleaf Sida (arrowleaf sida; 16 g ai/ha): 0; Plant response rating, Beggarticks (beggarticks; 16 g ai/ha): 0
5 | O=C1NCC(c2cc(F)c(F)c(F)c2)C1C(=O)Nc1ccccc1C(F)(F)F (racemic) [Compound 33] | – | – | – | – | – | – | – | – | – | – | 0 | 0 | 0 | 0 | 0 | 0 | 0 | 0 | 0 | 0 | –
